Reference: patent US11807627B2, “Morphic forms of complement factor D inhibitors” (priority 2018, dated 2023)
Converted amounts (≈) assume the structure as drawn.

How the values were obtained:
[1] = Interconversion experiments: competitive slurries (Example 2, Table 6); format: physicochemical
Method: A solution of Compound 3 and solvent/solvent system of interest was prepared. Solids persisted in solution. The samples were placed onto a stir plate at ambient (RT) or elevated (ET) temperatures. The samples were monitored to ensure that solids persisted during the slurry process. The solids were collected via vacuum filtration and dried under ambient conditions. […] At ambient temperature, Forms B and M are both present after almost a week of slurrying.

[2] = Thermal stability by TGA; format: physicochemical; settings: to 150° C.
Method: TG analyses were performed using a TA Instruments Q5000 IR thermogravimetric analyzer. Temperature calibration was performed using nickel and Alumel™. Each sample was placed in an aluminum pan. The sample was hermetically sealed, the lid pierced, then inserted into the TG furnace. The furnace was heated under nitrogen. The method code on the thermogram is an abbreviation for the start and end temperature as well as the heating rate; e.g., […] means “from 25° C. to 350° C., at 10° C./min”.

[3] = Solid state stress testing (temperature, humidity, storage, photostability); format: physicochemical
[4] = Solution stress testing (acid, base, oxidative degradation); format: physicochemical
[5] = pH experiments and SIF/SGF/FaSSIF/FeSSIF solubility (Examples 3 and 4); format: physicochemical
[6] = Caco2 permeability and efflux ratio; format: in vitro ADME; settings: human, Caco-2; Caco2; read-out: Efflux ratio (B-A/A-B)
[7] = tested on: Caco2; assay: Caco2 permeability and efflux ratio; format: in vitro ADME; settings: A-B
[8] = Dose number and BCS classification; format: physicochemical
[9] = ICH stability study of amorphous Compound 2; format: physicochemical
Excerpt: Compound 2 stored in double LDPE bag with silica gel in aluminum receptacle with lid had the following stability characteristics described in Table 9.

[10] = Vapor stress experiments at room temperature; format: physicochemical
Excerpt: Compound 3 was placed into vials which were sealed into chambers containing organic solvents. The samples were kept under these conditions for a period of days and then checked for signs of morphology changes.

[11] = Interconversion experiments: heat stress of forms (Table 6); format: physicochemical; settings: no solvent
Method: Saturated solutions of Compound 3 or solids generated from crystallization attempts were prepared. A small quantity of the sample was placed into an oven set at a specified temperature. The samples were monitored, microscopically, for signs of crystallization.

[12] = Drying of isolated samples at 50° C. for approximately 24 hours; format: physicochemical
Method: Samples produced from thermal cycling, cooling and evaporation experiments were dried at 50° C. for approximately 24 hours to assess any de-solvation/dehydration. From temperature cycling experiments, 3 samples converted upon drying: • Acetonitrile sample converted from Form J to amorphous; • 40% Ethanol/60% Water (% v/v) converted from Form N to Form P; and • Methanol sample converted from Form O to amorphous.

[13] = Thermogravimetric/differential thermal analysis (TG/DTA); format: physicochemical; settings: Table 22B
Method: Approximately, 5 mg of material was weighed into an open aluminium pan and loaded into a simultaneous thermogravimetric/differential thermal analyzer (TG/DTA) and held at room temperature. The sample was then heated at a rate of 10° C./min from 20° C. to 400° C. during which time the change in sample weight occurred was recorded along with any differential thermal events (DTA). Nitrogen was used as the purge gas at a flow rate of 300 cm^3/min.

[14] = Storage stability of Compound 3 forms (80° C., 40° C./75% RH, 25° C./60% RH, ambient); format: physicochemical; settings: 40° C./75% RH or 25° C./60% RH, capped or uncapped vial
Method: No changes by XRPD or HPLC purity were observed when the material was stored at 40° C./75% RH, 80° C. or under ambient conditions.

[15] = Solvent solubility screen by solvent addition (lyophilized material); format: physicochemical; settings: thermodynamic from solid
Method: A solvent solubility screen was conducted using 32 solvent systems. Approximately 360 mg of Compound 3 Form A was weighed into a 20 mL glass vial and dissolved using 18 mL of 1,4-dioxane. 0.5 mL of the solution was then dispensed into thirty-four 2 mL glass vials (approx. 10 mg per vial). The Compound 3 Form A solutions were then frozen (at −50° C.) and dried by lyophilization using a Lablyo mini freeze drier. Post-lyophilization, a sub-sample was taken and analyzed by XRPD. Material was successfully rendered amorphous by lyophilization.
The material produced from lyophilization was used for the solubility assessment. Solubility was estimated by a solvent addition technique. The solubility study was completed as follows: • Each solvent system was added to the appropriate vial in 5 volume aliquots until 100 volumes had been added or until the API dissolved; • Between each addition, samples were heated to 40° C. to check dissolution at elevated temperatures; • If 100 volumes of solvent were added without dissolution, solubility was calculated to be below this point.

CC(=O)c1nn(CC(=O)N2[C@H](C(=O)Nc3nc(Br)ccc3C)C[C@@]3(C)C[C@@H]23)c2ccc(-c3cnc(C)nc3)cc12 [A vs. B]
Interconversion: XRPD Result after slurry ([1]; ACN, RT Slurry): Form E
Interconversion: XRPD Result after slurry ([1]; EtOAc, RT Slurry): Form B
Interconversion: XRPD Result after slurry ([1]; EtOAc, ~50° C. Slurry): Form B

CC(=O)c1nn(CC(=O)N2[C@H](C(=O)Nc3nc(Br)ccc3C)C[C@@]3(C)C[C@@H]23)c2ccc(-c3cnc(C)nc3)cc12 [A, B, G]
Interconversion: XRPD Result after slurry ([1]; EtOAc, RT Slurry): Form B

CC(=O)c1nn(CC(=O)N2[C@H](C(=O)Nc3nc(Br)ccc3C)C[C@@]3(C)C[C@@H]23)c2ccc(-c3cnc(C)nc3)cc12 [B, G, M]
Interconversion: XRPD Result after slurry ([1]; EtOAc, ~50° C. Slurry): Form M*

CC(=O)c1nn(CC(=O)N2[C@H](C(=O)Nc3nc(Br)ccc3C)C[C@@]3(C)C[C@@H]23)c2c(C)cc(-c3cnc(C)nc3)cc12 [Compound 2]
Thermal Stability by TGA [2]: ~0.2% wt. loss to 150 °C
Solid State Stress Testing: Chemical Stability ([3]; 70° C./75% RH): No degradation
Solid State Stress Testing: Humidity ([3]; 70° C./75% RH): Amorphous crystallizes out
Solid State Stress Testing: Photostability ([3]; exposure to UV visible): No light sensitivity
Solution stress testing: Acid degradation ([4]; 0.1N HCl): Degradation observed
Acid degradation, extent ([4]; 0.1N HCl, 7-days at RT): (~8% 7-days at RT)
Solution stress testing: Base degradation ([4]; 0.1N NaOH): Degradation observed
Base degradation, extent ([4]; 0.1N NaOH, 2-days at RT): (~18% 2-days at RT)
Solution stress testing: Oxidative degradation ([4]; H2O2): Not susceptible to oxidation
solubility ([5]; FaSSIF, read-out: FaSSIF solubility): 2.6 µg/mL (≈ 0.00422 mM)
solubility ([5]; FeSSIF, read-out: FeSSIF solubility): 4.7 µg/mL (≈ 0.00762 mM)
efflux ratio [6]: 1.2
Caco2: A-B [7]: Caco2: A-B ~26 × 10^−6 cm/s
BCS class [8]: BCS II compound
Dose Number ([8]; for 125 mg): Dose Number (for 125 mg): 106-190
Assay ([9]; 5° C./NR RH, 1-month): 97.3%
Total Impurities ([9]; 5° C./NR RH, 1-month): 1.9%
Water Content ([9]; 5° C./NR RH, 1-month): 2.5%
XRPD ([9]; 5° C./NR RH, 1-month): amorphous
Assay ([9]; 5° C./NR RH, 3-month): 97.5%
Total Impurities ([9]; 5° C./NR RH, 3-month): 1.7%
Water Content ([9]; 5° C./NR RH, 3-month): 2.3%
Assay ([9]; 5° C./NR RH, Time Zero): 97.2%
Total Impurities ([9]; 5° C./NR RH, Time Zero): 1.9%
Water Content ([9]; 5° C./NR RH, Time Zero): 1.9%
XRPD ([9]; 5° C./NR RH, Time Zero): amorphous
Assay ([9]; 25° C./60% RH, 1-month): 97.0%
Total Impurities ([9]; 25° C./60% RH, 1-month): 1.9%
Water Content ([9]; 25° C./60% RH, 1-month): 3.0%
XRPD ([9]; 25° C./60% RH, 1-month): amorphous
Assay ([9]; 25° C./60% RH, 2 weeks): 99.5%
Total Impurities ([9]; 25° C./60% RH, 2 weeks): 1.9%
Water Content ([9]; 25° C./60% RH, 2 weeks): 2.7%%
Assay ([9]; 25° C./60% RH, 3-month): 97.8%
Total Impurities ([9]; 25° C./60% RH, 3-month): 1.9%
Water Content ([9]; 25° C./60% RH, 3-month): 3.1%
Assay ([9]; 25° C./60% RH, Time Zero): 97.2%
Total Impurities ([9]; 25° C./60% RH, Time Zero): 1.9%
Water Content ([9]; 25° C./60% RH, Time Zero): 1.9%
XRPD ([9]; 25° C./60% RH, Time Zero): amorphous
Assay ([9]; 40° C./75% RH, 1-month): 97.5%
Total Impurities ([9]; 40° C./75% RH, 1-month): 1.9%
Water Content ([9]; 40° C./75% RH, 1-month): 4.0%
XRPD ([9]; 40° C./75% RH, 1-month): amorphous
Assay ([9]; 40° C./75% RH, 2 weeks): 99.8%
Total Impurities ([9]; 40° C./75% RH, 2 weeks): 1.9%
Water Content ([9]; 40° C./75% RH, 2 weeks): 3.5%
Assay ([9]; 40° C./75% RH, 3-month): 96.4%
Total Impurities ([9]; 40° C./75% RH, 3-month): 1.6%
Water Content ([9]; 40° C./75% RH, 3-month): 3.8%
Assay ([9]; 40° C./75% RH, Time Zero): 97.2%
Total Impurities ([9]; 40° C./75% RH, Time Zero): 1.9%
Water Content ([9]; 40° C./75% RH, Time Zero): 1.9%
XRPD ([9]; 40° C./75% RH, Time Zero): amorphous

CC(=O)c1nn(CC(=O)N2[C@H](C(=O)Nc3nc(Br)ccc3C)C[C@@]3(C)C[C@@H]23)c2ccc(-c3cnc(C)nc3)cc12 [Disordered]
Vapor stress: XRPD Result ([10]; EtOAc vapor): Form B
Vapor stress: XRPD Result ([10]; MTBE vapor): Form C

CC(=O)c1nn(CC(=O)N2[C@H](C(=O)Nc3nc(Br)ccc3C)C[C@@]3(C)C[C@@H]23)c2ccc(-c3cnc(C)nc3)cc12 [Form C]
Interconversion: XRPD Result after heating ([11]; ~50° C.): Form C

CC(=O)c1nn(CC(=O)N2[C@H](C(=O)Nc3nc(Br)ccc3C)C[C@@]3(C)C[C@@H]23)c2ccc(-c3cnc(C)nc3)cc12 [Form E]
Interconversion: XRPD Result after heating ([11]; ~50° C.): Form G

CC(=O)c1nn(CC(=O)N2[C@H](C(=O)Nc3nc(Br)ccc3C)C[C@@]3(C)C[C@@H]23)c2ccc(-c3cnc(C)nc3)cc12 [Form F + C]
Interconversion: XRPD Result after heating ([11]; ~50° C.): Form F + C

CC(=O)c1nn(CC(=O)N2[C@H](C(=O)Nc3nc(Br)ccc3C)C[C@@]3(C)C[C@@H]23)c2ccc(-c3cnc(C)nc3)cc12 [Form G]
Interconversion: XRPD Result after heating ([11]; ~50° C.): Form G
Interconversion: XRPD Result after heating ([11]; ~160° C.): Form M

CC(=O)c1nn(CC(=O)N2[C@H](C(=O)Nc3nc(Br)ccc3C)C[C@@]3(C)C[C@@H]23)c2ccc(-c3cnc(C)nc3)cc12 [Form J + Form L]
Interconversion: XRPD Result after heating ([11]; ~50° C.): Form G

CC(=O)c1nn(CC(=O)N2[C@H](C(=O)Nc3nc(Br)ccc3C)C[C@@]3(C)C[C@@H]23)c2ccc(-c3cnc(C)nc3)cc12 [Form M]
Relative stability in competitive slurry ([1]; Forms B and M, approximately 50° C.): most stable

CC(=O)c1nn(CC(=O)N2[C@H](C(=O)Nc3nc(Br)ccc3C)C[C@@]3(C)C[C@@H]23)c2ccc(-c3cnc(C)nc3)cc12 [Form N]
Form after drying (de-solvation/dehydration) [12]: Form P
Onset Temp: Weak thermal events [13]: onset of 134.7 °C

CC(=O)c1nn(CC(=O)N2[C@H](C(=O)Nc3nc(Br)ccc3C)C[C@@]3(C)C[C@@H]23)c2ccc(-c3cnc(C)nc3)cc12 [Form O]
Form after drying (de-solvation/dehydration) [12]: amorphous
Onset Temp: Melting ([13]; listed as Pattern O): Melting 179.6 °C

CC(=O)c1nn(CC(=O)N2[C@H](C(=O)Nc3nc(Br)ccc3C)C[C@@]3(C)C[C@@H]23)c2ccc(-c3cnc(C)nc3)cc12 [Lyophilized Compound 3]
Stability: recrystallization upon storage [14]: no recrystallization
solubility ([15]; 2-propanol/heptane mixtures, organic solvent or mixture, 2-propanol, 95% 2-propanol/5% heptane, 70% 2-propanol/30% heptane, toluene, elevated temperatures (40° C.), read-out: Solubility (solvent addition), dissolution at elevated temperatures): > 200000 µg/mL
solubility ([15]; organic solvent or mixture, 1,4-dioxane, 1-butanol, 2-methyl THF, 95% 2-propanol/5% water, acetone, acetonitrile, 95% acetonitrile/5% water, chloroform, DCM, DMSO, ethyl acetate (dry), ethanol, isopropyl acetate, methanol, MEK, MIBK, DMF, DMA, THF, 95% methanol/5% water, read-out: Solubility (solvent addition)): ≥ 200000 µg/mL
solubility ([15]; organic solvent or mixture, 50% 2-propanol/50% heptane and 50% ethanol/50% heptane (% v/v), read-out: Solubility (solvent addition)): > 100000 µg/mL
solubility ([15]; n-heptane, tert-butylmethyl ether, ethyl ether, water, 50% 2-propanol/50% water, 40% ethanol/60% water, read-out: Solubility (solvent addition)): < 10000 µg/mL
